Measurements reported in patent publication US5449752A, “Polypeptides with affinity to lipopolysaccharides and their uses” (Seikagaku Kogyo K.K., priority 1991, dated 1995).
≈ marks a conversion by molar mass, not a printed value. Positions of bridges follow the written chain, without caps; N, C: chain ends. Residues, ends and D or L forms follow the SMILES beside them.

Key:
HIV = experiment: Antiviral activity against HIV in HIV-infected MT-4 cells (MTT method); type: cell-based, human immunodeficiency virus; settings: for EC50 (concentration at which cell death due to HIV infection is 50% inhibited): HIV-infected MT-4 cells, MOI 0.001, 37° C., 5 days, MTT method; for SI (CC50 /EC50): rough ratio of CC50 to EC50, MT-4 cells
Experimental: The antiviral activity-against HIV of the polypeptide (1) synthesized in Example 1 as well as polypeptides (2), (3), (4), (7), (12), (13), (14), (20), (21) and (26) was tested and evaluated according to the following method.
(§1) HIV-infected MT-4 cells (2.5×10^4 cells/well, multiplicity of infection (MOI): 0.001) immediately after infection were added together with the test substance with various changes of the concentration to a 96-well microtitre plate. After incubation at 37° C. for 5 days in a CO2 incubator, the number of survivor cells was measured by the MTT method [Pauwels et al.; J. Virol. Methods, 20, 309-321 (1988)]. The antiviral activity is expressed as a concentration at which cell death due to HIV infection is 50% inhibited (EC50 : 50% effective concentration). On the other hand, in order to know the cytotoxicity of the test substance on the MT-4 cells, virus-noninfected cells are incubated, likewise as above, together with the test compound with various changes of the concentration. The cytotoxicity is expressed as 50% cytotoxic concentration […] due to the test substance. Further, the rough ratio of CC50 to EC50 (CC50 /EC50) is expressed as an effective ratio (SI=selectivity index).

MT-4 cells = experiment: Cytotoxicity on virus-noninfected MT-4 cells (MTT method); type: cell-based; settings: 37° C., 5 days
Experimental: as §1

Structure (SMILES)	EC50 (concentration at which cell death due to HIV infection is 50% inhibited) (HIV) [µg/mL]	CC50 (50% cytotoxic concentration) (MT-4 cells) [µg/mL]	SI (CC50 /EC50) (HIV)
N=C(N)NCCC[C@H](NC(=O)[C@H](CCCNC(=N)N)NC(=O)[C@@H]1CSSC[C@H](NC(=O)[C@H](Cc2c[nH]c3ccccc23)NC(=O)[C@@H](N)CCCNC(=N)N)C(=O)N[C@@H](Cc2ccc(O)cc2)C(=O)N[C@@H](CCCNC(=N)N)C(=O)N[C@@H](CCCCN)C(=O)N[C@H]2CSSC[C@H](NC(=O)[C@H](Cc3ccccc3)NC(=O)CNC(=O)[C@H](CCCCN)NC(=O)[C@H](Cc3ccc(O)cc3)NC2=O)C(=O)N[C@@H](Cc2ccc(O)cc2)C(=O)N[C@@H](CCCNC(=N)N)C(=O)N[C@@H](CCCCN)C(=O)N1)C(N)=O [polypeptide (4), ArgTrpCysTyrArgLysCysTyrLysGlyPheCysTyrArgLysCysArgArgNH2] (H-RWCYRKCYKGFCYRKCRR-NH2; disulfide 3-16, 7-12; N-terminus assumed)	2.75 (≈ 1.11 µM)	338 (≈ 137 µM)	
N=C(N)NCCC[C@H](NC(=O)[C@@H]1CSSC[C@H](NC(=O)[C@H](Cc2c[nH]c3ccccc23)NC(=O)[C@@H](N)CCCNC(=N)N)C(=O)N[C@@H](Cc2ccc(O)cc2)C(=O)N[C@@H](CCCNC(=N)N)C(=O)N[C@@H](CCCCN)C(=O)N[C@H]2CSSC[C@H](NC(=O)[C@H](Cc3ccccc3)NC(=O)CNC(=O)[C@H](CCCCN)NC(=O)[C@H](Cc3ccccc3)NC2=O)C(=O)N[C@@H](Cc2ccc(O)cc2)C(=O)N[C@@H](CCCNC(=N)N)C(=O)N[C@@H](CCCCN)C(=O)N1)C(N)=O [polypeptide (21), ArgTrpCysTyrArgLysCysPheLysGlyPheCysTyrArgLysCysArgNH2] (H-RWCYRKCFKGFCYRKCR-NH2; disulfide 3-16, 7-12; N-terminus assumed)	0.08 (≈ 0.0348 µM)	53 (≈ 23.1 µM)	
CC(C)[C@@H]1NC(=O)[C@H](CCCNC(=N)N)NC(=O)[C@H](Cc2ccccc2)NC(=O)[C@@H](NC(=O)[C@H](Cc2c[nH]c3ccccc23)NC(=O)[C@H](CCCNC(=N)N)NC(=O)[C@@H](N)CCCNC(=N)N)CSSC[C@@H](C(=O)N[C@@H](CCCNC(=N)N)C(N)=O)NC(=O)[C@H](CCCCN)NC(=O)[C@H](CCCNC(=N)N)NC(=O)[C@H](Cc2ccc(O)cc2)NC(=O)[C@@H]2CSSC[C@H](NC1=O)C(=O)N[C@@H](Cc1ccc(O)cc1)C(=O)N[C@@H](CCCCN)C(=O)NCC(=O)N[C@@H](Cc1ccccc1)C(=O)N2 [Polyphemusin II, ArgArgTrpCysPheArgValCysTyrLysGlyPheCysTyrArgLysCysArg NH2, reference compound] (H-RRWCFRVCYKGFCYRKCR-NH2; disulfide 4-17, 8-13)	1.9 (≈ 0.783 µM)	33 (≈ 13.6 µM)	17
N=C(N)NCCC[C@H](NC(=O)[C@@H]1CSSC[C@H](NC(=O)[C@H](Cc2c[nH]c3ccccc23)NC(=O)[C@H](CCCNC(=N)N)NC(=O)[C@@H](N)CCCNC(=N)N)C(=O)N[C@@H](Cc2ccc(O)cc2)C(=O)N[C@@H](CCCNC(=N)N)C(=O)N[C@@H](CCCCN)C(=O)N[C@H]2CSSC[C@H](NC(=O)[C@H](Cc3ccc(O)cc3)NC(=O)CNC(=O)[C@H](CCCCN)NC(=O)[C@H](Cc3ccc(O)cc3)NC2=O)C(=O)N[C@@H](Cc2ccc(O)cc2)C(=O)N[C@@H](CCCNC(=N)N)C(=O)N[C@@H](CCCCN)C(=O)N1)C(N)=O [polypeptide (1)] (H-RRWCYRKCYKGYCYRKCR-NH2; disulfide 4-17, 8-13)		54 (≈ 21.7 µM)	10800
